These results are taken from US9346810B2, “Pyrrolopyrimidine compounds and uses thereof” (HUTCHISON MEDIPHARMA LIMITED, priority 2010, dated 2016).

Usually IC50 stands for the concentration that gives 50% inhibition.

Holding throughout (type): biochemical
Assay [1] deals with Recombinant human JAK1 catalytic domain (Homo sapiens (Human), UniProt P23458). The assay is described as follows: JAK1 kinase assay (Z'-LYTE, Tyr 6 Peptide). On the procedure: (§1) JAK1/2/3 kinase assay are performed in vitro using Kit-Tyr 6 Peptide (Invitrogen, Cat. No. PV4122). TYK2 kinase assay are performed in vitro using Z′-LYTE™ Kinase Assay Kit-Tyr 3 Peptide (Invitrogen, Cat. No. PV3192). […] All compounds are initially tested at 8 different concentrations (1 μM down to 0.0003 μM) using a 1:3 serial dilution scheme.

Assay [2] has as its target Recombinant human JAK3 catalytic domain (Homo sapiens (Human), UniProt P52333). Put plainly: JAK3 kinase assay (Z'-LYTE, Tyr 6 Peptide). Here is the method:
as §1

Assay [3] concerns the target Recombinant human JAK2 catalytic domain (Homo sapiens (Human), UniProt O60674). The assay is described as follows: JAK2 kinase assay (Z'-LYTE, Tyr 6 Peptide). The following applies: read-out: IC50 in JAK2 kinase assay. Here is the method: as §1
The mark [4] stands for this setting: read-out: IC50 in JAK1 kinase assay.
[5] abbreviates: read-out: IC50 in JAK3 kinase assay.

Structures are written as SMILES. Where two headings read alike, the source gives them in different places.

Recombinant human JAK2 catalytic domain, sequence (O60674 849-1124): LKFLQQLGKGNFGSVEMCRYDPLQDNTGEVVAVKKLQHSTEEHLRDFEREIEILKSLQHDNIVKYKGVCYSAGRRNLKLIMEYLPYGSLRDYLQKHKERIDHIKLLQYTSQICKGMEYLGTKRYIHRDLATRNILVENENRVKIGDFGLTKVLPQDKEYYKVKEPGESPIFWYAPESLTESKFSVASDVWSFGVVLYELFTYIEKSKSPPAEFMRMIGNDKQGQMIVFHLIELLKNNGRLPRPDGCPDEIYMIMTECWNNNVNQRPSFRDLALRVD
Recombinant human JAK3 catalytic domain, sequence (P52333 822-1111): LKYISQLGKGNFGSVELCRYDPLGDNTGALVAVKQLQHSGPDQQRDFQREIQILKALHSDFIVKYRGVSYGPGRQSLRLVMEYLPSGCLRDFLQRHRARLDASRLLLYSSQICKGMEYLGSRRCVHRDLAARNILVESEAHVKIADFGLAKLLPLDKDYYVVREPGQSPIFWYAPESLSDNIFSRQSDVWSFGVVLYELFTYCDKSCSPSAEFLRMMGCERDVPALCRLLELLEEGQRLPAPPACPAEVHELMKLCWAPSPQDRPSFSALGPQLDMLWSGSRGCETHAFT
Recombinant human JAK1 catalytic domain, sequence (P23458 875-1153): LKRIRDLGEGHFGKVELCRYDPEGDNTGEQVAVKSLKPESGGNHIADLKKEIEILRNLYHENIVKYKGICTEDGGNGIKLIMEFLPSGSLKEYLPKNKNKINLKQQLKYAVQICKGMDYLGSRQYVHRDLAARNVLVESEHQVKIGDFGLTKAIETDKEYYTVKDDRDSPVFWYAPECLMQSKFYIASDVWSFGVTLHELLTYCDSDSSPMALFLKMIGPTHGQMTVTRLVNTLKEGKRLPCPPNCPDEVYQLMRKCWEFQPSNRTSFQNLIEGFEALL

`CN(c1ccc(C(=O)Nc2nccs2)cn1)[C@@H]1CCN(c2ncnc3[nH]ccc23)C1` [Compound 199]: the concentration for half-maximal inhibition (IC50) in assay [1] (read-out: JAK1 (enzyme, IC50)) was determined as 14 nM; in assay [2] (read-out: JAK3 (enzyme, IC50)) it was 522 nM.

`COc1cc2ncnc(N(C)[C@@H]3CCN(c4ncnc5[nH]ccc45)C3)c2cc1OC` [Compound 86]: the IC50 in assay [1] (setting [4]) was 1 to 100 nM; in assay [2] (setting [5]) it was 100 to 1000 nM; in assay [3], 1 to 100 nM.

With `COc1nc(N(C)[C@@H]2CCN(c3ncnc4[nH]ccc34)C2)ccc1C#N` [Compound 42], the concentration for half-maximal inhibition (IC50) in assay [1] (setting [4]), in assay [2] (setting [5]) and in assay [3] was 1 to 100 nM in each case.

In the case of `CN(c1ccnc(C#N)c1)[C@@H]1CCN(c2ncnc3[nH]ccc23)C1` [Compound 121], the IC50 in assay [1] (setting [4]), in assay [2] (setting [5]) and in assay [3] was 1 to 100 nM each time.

`CN(c1ccc(C#N)cc1)[C@@H]1CCN(c2ncnc3[nH]ccc23)C1` [Compound 104]: the 50% inhibitory concentration (IC50) in assay [1] (setting [4]) was in the range of 1 to 100 nM; in assay [2] (setting [5]), 100 to 1000 nM; in assay [3], 1 to 100 nM.

As for `CN(c1ccc(S(=O)(=O)NC2CC2)cn1)[C@@H]1CCN(c2ncnc3[nH]ccc23)C1` [Compound 236], the IC50 in assay [1] (setting [4]), in assay [2] (setting [5]) and in assay [3] was 1 to 100 nM throughout.

On to `Cc1cc(N(C)[C@@H]2CCN(c3ncnc4[nH]ccc34)C2)ncc1[N+](=O)[O-]` [Compound 77], for which the half-maximal inhibitory concentration (IC50) was in the range of 1 to 100 nM in assay [1] (setting [4]), 100 to 1000 nM in assay [2] (setting [5]) and 100 to 1000 nM in assay [3].

In the case of `CN(c1ccc(C(F)(F)F)cn1)[C@@H]1CCN(c2ncnc3[nH]ccc23)C1` [Compound 123], the concentration for half-maximal inhibition (IC50) in assay [1] (setting [4]) and in assay [3] was 1 to 100 nM throughout.

Consider `CN(c1ccc(Cl)cn1)[C@@H]1CCN(c2ncnc3[nH]ccc23)C1` [Compound 67], for which the concentration for half-maximal inhibition (IC50) in assay [1] (setting [4]), in assay [2] (setting [5]) and in assay [3] was 1 to 100 nM in each case.

For `CNS(=O)(=O)c1ccc(N(C)[C@@H]2CCN(c3ncnc4[nH]ccc34)C2)nc1` [Compound 239], the IC50 in assay [1] (setting [4]) lay in the range of 1 to 100 nM; in assay [3], 100 to 1000 nM.

As for `CN(c1ccncn1)[C@@H]1CCN(c2ncnc3[nH]ccc23)C1` [Compound 154, (R)—N-(1-(7H-pyrrolo[2,3-d]pyrimidin-4-yl)pyrrolidin-3-yl)-N-methylpyrimidin-4-amine], the IC50 in assay [1] (setting [4]) was 1 to 100 nM; in assay [3], 100 to 1000 nM.

`CN(c1ccc(-c2nn[nH]n2)cc1F)[C@@H]1CCN(c2ncnc3[nH]ccc23)C1` [Compound 161]: the IC50 in assay [1] (setting [4]) and in assay [3] was 1 to 100 nM throughout.

Turning to `C#CCN(c1ccc(C#N)cn1)[C@@H]1CCN(c2ncnc3[nH]ccc23)C1` [Compound 128], the IC50 in assay [1] (setting [4]) and in assay [3] was 1 to 100 nM in each case.

Turning to `CN(c1ccc(S(=O)(=O)C(F)(F)F)cc1)[C@@H]1CCN(c2ncnc3[nH]ccc23)C1` [Compound 122], the IC50 in assay [1] (setting [4]) and in assay [3] was 1 to 100 nM in each case.

As for `CN(c1ccc(S(=O)(=O)NC2CCOCC2)cn1)[C@@H]1CCN(c2ncnc3[nH]ccc23)C1` [Compound 259], the figures for the IC50 in assay [1] (setting [4]) and in assay [3] were 1 to 100 nM and 100 to 1000 nM, respectively.

In the case of `CN(c1ccc(S(=O)(=O)N2CCOCC2)cn1)[C@@H]1CCN(c2ncnc3[nH]ccc23)C1` [Compound 252], the IC50 in assay [1] (setting [4]) was 1 to 100 nM; in assay [3], 100 to 1000 nM.

In the case of `CN(c1ccc(S(=O)(=O)NC[C@H]2CCCO2)cn1)[C@@H]1CCN(c2ncnc3[nH]ccc23)C1` [Compound 241], the IC50 in assay [1] (setting [4]) and in assay [3] was 1 to 100 nM in each case.

`CN(c1ccc(S(=O)(=O)NC2COC2)cn1)[C@@H]1CCN(c2ncnc3[nH]ccc23)C1` [Compound 242]: the half-inhibitory concentration (IC50) in assay [1] (setting [4]) and in assay [3] was 1 to 100 nM each time.
